Molecules are shown by their SMILES. Values after ≈ are worked out from the molar mass of the structure shown.

Experiment [1] is filed under the species Homo sapiens. Put plainly: Induction of elastase release in human PMNC assessed as increase in p-nitroanilide formation. The format is functional.
The nature of experiment [2]: Antiinflammatory activity against cytochalasin-activated human PMNC assessed as inhibition of platelet activating factor-induced elastase release by p-nitroanilide formation assay. Type of experiment: functional.

Consider `C[C@H]1O[C@@H](O[C@H]2[C@@H](O)C[C@H](O[C@H]3[C@@H](O)C[C@H](O[C@H]4CC[C@@]5(C)[C@H](CC[C@@H]6[C@@H]5CC[C@]5(C)[C@@H](C7=CC(=O)OC7)CC[C@]65O)C4)O[C@@H]3C)O[C@@H]2C)C[C@H](O)[C@@H]1O`, for which the Activity result in experiment [1] was “Dose-dependent effect”. For the compound `C[C@@H]1C(=O)O[C@H]2[C@H](O)[C@@]34[C@H]5C[C@@H](C(C)(C)C)[C@]36[C@@H](OC(=O)[C@@H]6O)O[C@@]4(C(=O)O5)[C@@]12O` [GINKOLIDE B], in experiment [2], the IC50 was determined as 72 µg/mL (≈ 170 µM).

Values taken from ChEMBL document CHEMBL1156401, “A neutrophil multitarget functional bioassay to detect anti-inflammatory natural products” (J Nat Prod, 2002).
